Values quoted from earlier work as cited in patent publication US11466019B2, “Triazolo[4,5-d] pyramidine derivatives and their use as purine receptor antagonists” (Vernalis (R&D) Limited, priority 2008, dated 2022).

Columns and labels:
Parkinsonian patients = details: cited from earlier work
cataleptic responses = details: cited from earlier work

Cn1c(=O)c2[nH]cnc2n(C)c1=O [theophylline, 1,3-dimethylxanthine]
mean objective disability scores (Parkinsonian patients; 15 Parkinsonian patients, treated for up to 12 weeks): significant improvements
patients who reported moderate or marked subjective improvement (Parkinsonian patients; of 15 Parkinsonian patients, treated for up to 12 weeks): 11
serum theophylline levels (Parkinsonian patients; slow release oral theophylline preparation, after one week, Parkinsonian patients): 4.44 mg/L

CCCn1c(=O)c2c(nc(/C=C/c3ccc(OC)c(OC)c3)n2C)n(CCC)c1=O [KF 17837, E-8-(3,4dimethoxystyryl)-1,3-dipropyl-7-methylxanthine]
anticataleptic effects of a subthreshold dose of L-DOPA plus benserazide (cataleptic responses; combination): potentiated the anticataleptic effects
catalepsy induced by haloperidol and reserpine (cataleptic responses; in vivo): reduced the catalepsy
cataleptic responses induced by intracerebroventricular administration of CGS 21680 (cataleptic responses; oral administration): significantly ameliorated
